Data taken from patent US10752587B2, “Homobispiperidinyl derivatives as liver X receptor beta agonists, compositions and their use” (Merck Sharp & Dohme Corp., priority 2015, dated 2020).
Like-named read-outs stand apart in the source and are kept apart here.

Experiments:
[1] = biological target: T1, glutathione-S-transferase (GST) tagged LXRalpha LBD (ligand binding domain) (Homo sapiens, UniProt Q13133); experiment: LanthaScreen TR-FRET Liver X Receptor Coactivator Assay, co-activator recruitment to LXRalpha LBD; assay type: biochemical; conditions: for LXR alpha IP (nM) / EC50: potency (Inflection Point, IP), co-activator recruitment to LXRalpha LBD, in relation to T0901317; for EC50: read-out: LXR alpha IP
T1 construct: purchased Invitrogen pv4655
T1 sequence (Q13133 209-447 limits assumed): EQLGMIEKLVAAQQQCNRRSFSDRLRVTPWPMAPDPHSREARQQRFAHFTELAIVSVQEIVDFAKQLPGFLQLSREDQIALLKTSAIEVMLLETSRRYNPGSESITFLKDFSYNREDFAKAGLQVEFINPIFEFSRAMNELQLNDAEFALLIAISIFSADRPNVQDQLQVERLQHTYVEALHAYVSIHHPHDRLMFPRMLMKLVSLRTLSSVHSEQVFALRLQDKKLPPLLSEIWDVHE
Procedure, shortened: (§1)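 TR-FRET coactivator recruitment; compound + LBD, then fluorescein-coactivator peptide/Tb-anti-GST Ab mix; RT incubation; IP and Emax vs T0901317.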

[2] = biological target: T2, glutathione-S-transferase (GST) tagged LXRbeta LBD (ligand binding domain) (Homo sapiens, UniProt P55055); experiment: LanthaScreen TR-FRET Liver X Receptor Coactivator Assay, co-activator recruitment to LXRbeta LBD; assay type: biochemical
T2 construct: purchased Invitrogen pv4658.pps
T2 sequence (P55055 222-460 limits assumed): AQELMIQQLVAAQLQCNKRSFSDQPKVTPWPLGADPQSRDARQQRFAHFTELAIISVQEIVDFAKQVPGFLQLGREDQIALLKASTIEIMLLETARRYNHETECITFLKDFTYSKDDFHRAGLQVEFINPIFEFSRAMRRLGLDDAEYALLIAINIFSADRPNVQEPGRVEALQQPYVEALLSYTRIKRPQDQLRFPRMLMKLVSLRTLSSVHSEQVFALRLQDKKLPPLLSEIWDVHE
Procedure, shortened: as §1

[3] = efficacy at max dose, in relation to reference dual agonist T0901317, read-out: LXR alpha Activity @ max dose (%)
[4] = efficacy at max dose, in relation to reference dual agonist T0901317, read-out: LXR beta Activity @ max dose (%)
[5] = potency (Inflection Point, IP), co-activator recruitment to LXRbeta LBD, in relation to T0901317, read-out: LXR beta IP
[6] = read-out: LXR beta Activity @ max dose (%)
[7] = efficacy at max dose, in relation to reference dual agonist T0901317

| Emax [1, 3] | LXR alpha IP (nM) [1] | Emax [2, 4] | EC50 [2, 5] | EC50 [1] | Structure (SMILES) | further results |
| --- | --- | --- | --- | --- | --- | --- |
| 6% | NO IP | 44% | 20 nM |  | COc1cccc([C@@](O)(C(=O)N2CCC(CC3CCN(c4ccc(C(=O)N(C)C)c(C)c4)CC3)CC2)C(F)(F)F)c1 [Example 2-158, N,N,2-trimethyl-4-[4-({1-[(2R)-3,3,3-trifluoro-2-hydroxy-2-(3-methoxyphenyl)propanoyl]piperidin-4-yl}methyl)piperidin-1-yl]benzamide] |  |
| 37% |  | 114% | 20 nM | 429 nM | Cc1ccccc1C1(C(=O)N2CCC(CC3CCN(c4ccc(C(=O)N(C)C)c(Cl)n4)CC3)CC2)CCC1 [Example 7-56, 2-chloro-N,N-dimethyl-6-{4-[(1-{[1-(2-methylphenyl)cyclobutyl]carbonyl}piperidin-4-yl)methyl]piperidin-1-yl}pyridine-3-carboxamide] |  |
| 43% |  | 118% | 84 nM | 836 nM | CN(C)C(=O)c1ccc(N2CCC(CC3CCN(C(=O)[C@](O)(c4ccccc4)C(F)(F)C(F)(F)F)CC3)CC2)cc1 [Example 2-140, N,N-dimethyl-4-[4-({1-[(2R)-3,3,4,4,4-pentafluoro-2-hydroxy-2-phenylbutanoyl]piperidin-4-yl}methyl)piperidin-1-yl]benzamide] |  |
| 3% | NO IP | 67% | 4 nM |  | CN(CCn1cncn1)C(=O)c1ccc(N2CCC(CC3CCN(C(=O)[C@](O)(c4cc(Cl)cc(Cl)c4)C(F)(F)F)CC3)CC2)cc1Cl [Example 4-26, 2-chloro-4-[4-({1-[(2R)-2-(3,5-dichlorophenyl)-3,3,3-trifuoro-2-hydroxypropanoyl]piperidin-4-yl}methyl)piperidin-1-yl]-N-methyl-N-[2-(1H-1,2,4-triazol-1-yl)ethyl]benzamide] |  |
| 9% | NO IP | 37% | 3 nM |  | NC(=O)c1ccc(N2CCC(CC3CCN(C(=O)[C@](O)(c4cc(Cl)cc(Cl)c4)C(F)(F)F)CC3)CC2)cc1Cl [Example 12-1, 2-chloro-4-[4-({1-[(2R)-2-(3,5-dichlorophenyl)-3,3,3-trifluoro-2-hydroxypropanoyl]piperidin-4-yl}methyl)piperidin-1-yl]benzamide] |  |
| 26% |  | 91% | 26 nM | 223 nM | CNC(=O)c1ccc(N2CCC(CC3CCN(C(=O)[C@](O)(c4cccc(OC(F)(F)F)c4)C(F)(F)F)CC3)CC2)nc1Cl [Example 7-139, 2-chloro-N-methyl-6-{4-[(1-{(2R)-3,3,3-trifluoro-2-hydroxy-2-[3-(trifluoromethoxy)phenyl]propanoyl}piperidin-4-yl)methyl]piperidin-1-yl}pyridine-3-carboxamide] |  |
| 9% | NO IP | 34% | 72 nM |  | CN(C)C(=O)c1ccc(N2CCC(CC3CCN(C(=O)C(O)(c4ccnc(C(F)(F)F)c4)C(F)(F)F)CC3)CC2)cc1Cl (stereo not drawn) [Example 2-40, 2-chloro-N,N-dimethyl-4-{4-[(1-{3,3,3-trifluoro-2-hydroxy-2-[2-(trifluoromethyl)pyridin-4-yl]propanoyl}piperidin-4-yl)methyl]piperidin-1-yl}benzamide] |  |
| 0% | NO IP | 29% | 8 nM |  | CCOc1cccc([C@@](O)(C(=O)N2CCC(C)(CC3CCN(c4ccc(C(=O)N(C)C)c(Cl)c4)CC3)CC2)C(F)(F)F)c1 [Example 2-50, 2-chloro-4-[4-({1-[(2R) 2-(3-ethoxy-phenyl)-3,3,3-trifluoro-2-hydroxy-propanoyl]-4-methyl-piperidin-4-yl}methyl)piperidin-1-yl]-N,N-dimethyl-benzamide] |  |
| 3% | NO IP | 62% | 18 nM |  | COc1cccc([C@@](O)(C(=O)N2CC(CC3CCN(c4ccc(C(=O)N(C)C)c(Cl)c4)CC3)C2)C(F)(F)F)c1 [Example 2-59, 2-chloro-N,N-dimethyl-4-[4-({1-[(2R)-3,3,3-trifluoro-2-hydroxy-2-(3-methoxyphenyl)propanoyl]azetidin-3-yl}methyl)piperidin-1-yl]benzamide] |  |
| 22% |  | 84% | 4 nM | 41 nM | COc1cc(F)cc([C@@](O)(C(=O)N2CCC(CC3CCN(c4ccc(C(=O)N(C)C)c(Cl)n4)CC3)CC2)C(F)(F)F)c1 [Example 7-101, 2-chloro-N,N-dimethyl-6-[4-({1-[(2R)-3,3,3-trifluoro-2-(3-fluoro-5-methoxyphenyl)-2-hydroxypropanoyl]piperidin-4-yl}methyl)piperidin-1-yl]pyridine-3-carboxamide] |  |
|  |  |  |  |  | CN(C)C(=O)c1ccc(N2CCC(CC3CCN(S(=O)(=O)c4cccc(OC(F)F)c4)CC3)CC2)cc1Cl [Example 13-10, 2-chloro-4-{4[(1-{[3-(difluoromethoxy)-phenyl]sulfonyl}-piperidin-4-yl)methyl]-piperidin-1-yl}-N,N-dimethylbenzamide] | LXR alpha IP (Inflection Point, potency) ([1]; co-activator recruitment to GST-LXRalpha LBD, TR-FRET): NO IP; Emax ([1]; efficacy in relation to reference dual agonist T0901317, read-out: LXR alpha Activity @ max dose): 5%; EC50 ([2]; co-activator recruitment to GST-LXRbeta LBD, TR-FRET, read-out: LXR beta IP (Inflection Point, potency)): 104 nM; Emax ([2]; efficacy in relation to reference dual agonist T0901317, read-out: LXR beta Activity @ max dose): 52% |
| 0% | NO IP | 68% | 23 nM |  | COc1cccc(C(O)(C(=O)N2CCC(OC3CCN(c4ccc(C(=O)N(C)C)c(Cl)c4)CC3)CC2)C(F)(F)F)c1 (stereo not drawn) [Example 2-26, 2-chloro-N,N-dimethyl-4-[4-({1-[3,3,3-trifluoro-2-hydroxy-2-(3-methoxyphenyl)propanoyl]piperidin-4-yl}oxy)piperidin-1-yl]benzamide] |  |
| 9% | NO IP | 76% | 13 nM |  | CNC(=O)c1ccc(N2CCC(CC3CCN(C(=O)[C@](O)(c4cc(Cl)cc(Cl)c4)C(F)(F)F)CC3)CC2)cc1Cl [Example 7-116, 2-chloro-4-[4-({1-[(2R)-2-(3,5-dichlorophenyl)-3,3,3-trifluoro-2-hydroxypropanoyl]piperidin-4-yl}methyl)piperidin-1-yl]-N-methylbenzamide] |  |
|  | NO IP |  | 60 nM |  | CN(C)C(=O)c1ccc(N2CCC(CC3CCN(C(=O)[C@](O)(c4cc(Cl)cc(Cl)c4)C(F)(F)F)CC3)CC2)cc1 [Example 2-142, 4-[4-({1-[(2R)-2-(3,5-dichloro-phenyl)-3,3,3-trifluoro-2-hydroxy-propanoyl]piperidin-4-yl}methyl)piperidin-1-yl]-N,N-dimethyl-benzamide] | LXR alpha Activity @ max dose (%) [1, 7]: 4%; LXR beta Activity @ max dose (%) [2, 7]: 60% |

| Structure (SMILES) | Emax [1, 3] | LXR alpha IP (nM) [1] | Emax [2, 4] | EC50 [2, 5] | EC50 [1] | further results |
| --- | --- | --- | --- | --- | --- | --- |
| Cc1nc(N2CCC(CC3CCN(C(=O)C(O)(c4cccc(Cl)c4)C(F)(F)F)CC3)CC2)ccc1C(=O)N(C)C (stereo not drawn) [Example 7-7, 6-[4-({1-[2-(3-chlorophenyl)-3,3,3-trifluoro-2-hydroxypropanoyl]piperidin-4-yl}methyl)piperidin-1-yl]-N,N,2-trimethylpyridine-3-carboxamide] |  |  |  | 36 nM | 508 nM | Emax ([1]; read-out: LXR alpha Activity @ max dose (%)): 24%; Emax [2, 6]: 95% |
| COc1cccc([C@@](O)(C(=O)N2CCC(CC3(C)CCN(c4ccc(C(=O)N(C)C)c(Cl)c4)CC3)CC2)C(F)(F)F)c1 [Example 3-1, (R)-2-chloro-N,N-dimethyl-4-(4-methyl-4-((1-(3,3,3-trifluoro-2-hydroxy-2-(3-methoxyphenyl)propanoyl)piperidin-4-yl)methyl)piperidin-1-yl)benzamide] | 5% | NO IP |  |  |  | EC50 ([2]; LXR beta IP (nM), potency (Inflection Point, IP), co-activator recruitment to LXRbeta LBD, in relation to T0901317): 35 nM; Emax [2, 6]: 63% |
| CN(C)C(=O)c1ccc(N2CCN(CC3CCN(C(=O)[C@](O)(c4ccccc4)C(F)(F)F)CC3)CC2)cc1Cl [Example 6-1, 2-chloro-N,N-dimethyl-4-[4-({1-[(2R)-3,3,3-trifluoro-2-hydroxy-2-phenylpropanoyl]piperidin-4-yl}methyl)piperazin-1-yl]benzamide] | 29% |  |  | 84 nM | 9030 nM | Emax [2, 6]: 60% |
| O=C(c1ccc(N2CCC(CC3CCN(C(=O)[C@](O)(c4ccccc4)C(F)(F)F)CC3)CC2)cc1Cl)N1[C@H]2CC[C@@H]1CC2 [Example 4-21, (2R)-3-{4-[(1-{4-[(1s,4s)-7-aza-bicyclo[2.2.1]hept-7-ylcarbonyl]-3-chlorophenyl}piperidin-4-yl)methyl]piperidin-1-yl}-1,1,1-trifluoro-3-oxo-2-phenylpropan-2-ol] | 25% |  | 63% | 74 nM | 457 nM |  |
